From patent US8263605B2, “Modulators of muscarinic receptors” (Vertex Pharmaceutical Incorporated, priority 2006, dated 2012)

Columns and labels:
[1] = target: T1, M4 muscarinic receptor (Homo sapiens, UniProt P08173); test: Functional mobilization of intracellular calcium (FLIPR), M4-CHO cells; format: cell-based; conditions: for Emax: 100% efficacy is the maximum response obtained with the Carbachol control; for M4 Activity: CHO cells expressing M4, calcium mobilization
T1 construct: expressed in transfected cells; host or cells: CHO (M4-CHO)
T1 sequence (P08173 1-479): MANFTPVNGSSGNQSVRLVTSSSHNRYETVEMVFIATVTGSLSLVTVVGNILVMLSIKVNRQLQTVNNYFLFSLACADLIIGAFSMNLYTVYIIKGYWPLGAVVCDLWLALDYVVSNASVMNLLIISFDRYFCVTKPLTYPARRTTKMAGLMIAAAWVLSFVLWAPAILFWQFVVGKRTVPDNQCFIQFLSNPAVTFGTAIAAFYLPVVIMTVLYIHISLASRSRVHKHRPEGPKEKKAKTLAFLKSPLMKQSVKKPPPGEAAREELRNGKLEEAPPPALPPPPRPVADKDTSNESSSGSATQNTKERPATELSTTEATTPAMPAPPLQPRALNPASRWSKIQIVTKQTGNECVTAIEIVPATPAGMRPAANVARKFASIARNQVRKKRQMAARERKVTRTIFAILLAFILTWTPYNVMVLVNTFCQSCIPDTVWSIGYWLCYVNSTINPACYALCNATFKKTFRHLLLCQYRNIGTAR
Protocol: (§1) Functional Mobilization of Intracellular Calcium to Determine Muscarinic Receptor Activity:
(§2) CHO cells expressing muscarinic receptors (M1 to M5) are grown as monolayers in tissue culture flasks at 37° C. in a humidified atmosphere containing 5% CO2 and passaged every 3-5 days. The growth media is Dulbecco's modified eagles medium (DMEM, Gibco Cat#12430-054), containing 25 mM Hepes and supplemented with Fetal Bovine Serum (Hyclone, cat# SH30071.03), 0.1 mM of MEM non-essential amino acids (GIBCO, Cat#11140-050), 1 mM MEM Sodium Pyruvate (GIBCO Cat#11360-070) and 100 units/ml of Penicillin G and 100 μg/ml of Streptomycin (GIBCO Cat#15140-122). The recombinant muscarinic receptor cell lines are grown under antibiotic pressure with media containing 25 μg/ml zeocin and 500 μg/ml G418 (M1-CHO), 4 μg/ml puromycin, 50 μg/ml zeocin and 2.5 μg/ml blasticidin (M2 and M4-CHO) or 50 μg/ml zeocin and 4 μg/ml puromycin (M3 and M5-CHO).
(§3) Cells are harvested at 80-90% confluence using Versene (GIBCO Cat#15040-066), collected by centrifugation and seeded 18-24 hours prior to running the calcium assay at a density of 5,000-10,000 cells/well in […], clear-bottomed 384-well plates (BD Biocoat, poly-D-lysine, Cat#356663). The day of the experiment, the cells are washed with a plate washer (Bioteck Instrunents, ELX 405) using bath 1 buffer (140-mM NaCl, 4.5-mM KCl, 2-mM CaCl2, 1-mM MgCl2, 10-mM Hepes-Na, 10-mM Glucose, pH 7.4, with NaOH) containing 1 mM Probenecid. Next, the calcium dye Fluo-3 (25 μl/well of Fluo-3 AM at 4 μM, Molecular Probes F-1241, in Bath 1 buffer containing 1 mM Probenecid) is added to the 25 μl of Bath 1 remaining in each well after the plate wash and the dye is loaded at 37° C. in the tissue culture incubator for 60-90 min. The fluorescent dye is removed using the plate washer with Bath 1 containing 1 mM Probenecid, leaving 25 μl/well of this solution after the wash. Alternatively, cells can be loaded with the calcium indicator from Molecular Devices (Calcium 3 Assay Reagents, Cat # R7181) adding 5 μl of a 5× solution dye in Bath 1 containing 1 mM Probenecid (10 ml per dye flask cat# R7182 to generate a solution 20×) to 20 μl of the same buffer. After loading for 60 min, the experiment can be run without having to remove the dye.
(§4) Compounds are prepared at a 2× fold concentration in a 96-well plate (round bottom, Costar Corning cat#3656), by reconstituting the pre-spotted compounds in bath 1 containing 1 mM probenecid. The final concentration DMSO is 0.5%, and the amount of DMSO is normalized across the assay plate. To determine an agonist action of the compounds on muscarinic receptors, the reconstituted compounds are added (25 μl compound/well) to the cell assay plate (containing 25 μl/well) using the multi-channel robotic system of the FLIPR 3 Instrument (Molecular Devices, Sunnyvale, Calif.). To determine a functional inhibitory action of the compounds on muscarinic receptors, the reconstituted compounds are added (25 μl compound/well) to the assay plate and pre-incubated for 15 min prior to adding 25 μl of Carbachol at 3× the EC80 for each muscarinic subtype. Alternatively, the compounds can be co-applied simultaneously with the agonist. In both assay modes, the fluorescence is recorded for 60 sec (excitation wavelength is […] and emission wavelength 540 nm) using the FLIPR 3 instrument.
(§5) The potency, efficacy and selectivity of the muscarinic compounds were evaluated by screening the compound activity across the whole family (M1 to M5 cells). Compounds were also screened for activity on other proteins such as other GPCRs and ion channels to determine selectivity on M4 receptors.
(§6) Examples of activities and efficacies of the muscarinic compounds of formulae (I, Ia, Ib, Ic, Id, and Ie) on modulating M1 and M4 receptors are shown below in Table 4. […]

[2] = target: T2, M1 muscarinic receptor (Homo sapiens, UniProt P11229); test: Functional mobilization of intracellular calcium (FLIPR), M1-CHO cells; format: cell-based; conditions: for Emax: 100% efficacy is the maximum response obtained with the Carbachol control; for M1 Activity: CHO cells expressing M1, calcium mobilization
T2 construct: expressed in transfected cells; host or cells: CHO (M1-CHO)
T2 sequence (P11229 1-460): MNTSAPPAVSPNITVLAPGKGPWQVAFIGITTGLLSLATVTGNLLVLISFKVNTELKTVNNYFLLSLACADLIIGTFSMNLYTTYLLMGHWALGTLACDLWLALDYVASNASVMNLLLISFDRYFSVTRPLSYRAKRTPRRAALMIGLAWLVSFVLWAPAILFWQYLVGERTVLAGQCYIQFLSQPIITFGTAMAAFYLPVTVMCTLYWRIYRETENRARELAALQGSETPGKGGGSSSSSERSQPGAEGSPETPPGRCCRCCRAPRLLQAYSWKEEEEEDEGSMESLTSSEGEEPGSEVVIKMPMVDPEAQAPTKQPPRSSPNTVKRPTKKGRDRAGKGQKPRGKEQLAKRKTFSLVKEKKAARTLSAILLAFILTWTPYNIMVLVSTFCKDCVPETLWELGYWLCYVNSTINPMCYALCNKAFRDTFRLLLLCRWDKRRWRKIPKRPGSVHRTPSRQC
Protocol: as §1, §2, §3, §4, §5, §6

| SMILES | Emax [1] [%] | M4 Activity [1] | Emax [2] [%] | M1 Activity [2] |
| --- | --- | --- | --- | --- |
| CC#CCOC(=O)N1C2CCC1CC(N1CCC3(CCN(C(=O)N(C)C)c4ccccc43)CC1)C2 (centres unmarked) [compound 29] | 25 to 100 | +++ (activity was measured to be less than 2.0 μM) | > 100 | +++ (activity was measured to be less than 2.0 μM) |
| CN(C)C(=O)N1CCC2(CCN(C3CC4CCC(C3)N4c3cnccn3)CC2)c2ccccc21 (centres unmarked) [compound 30] | 25 to 100 | +++ (activity was measured to be less than 2.0 μM) | 25 to 100 | +++ (activity was measured to be less than 2.0 μM) |
| Cc1nsc(N2C3CCC2CC(N2CCC4(CCN(C(=O)N(C)C)c5ccccc54)CC2)C3)n1 (centres unmarked) [compound 31] | 25 to 100 | +++ (activity was measured to be less than 2.0 μM) | 25 to 100 | +++ (activity was measured to be less than 2.0 μM) |
| CN(C)C(=O)N1CCC2(CCN(C3CCNCC3)CC2)c2ccccc21 [compound 33] | < 25 | + (activity was measured to be greater than 10.0 μM) | < 25 | + (activity was measured to be greater than 10.0 μM) |
| CC(=O)N1CCC2(CCN(C3CCNCC3)CC2)c2ccccc21 [compound 34] | < 25 | ++ (activity was measured to be from 2.0 μM to 10.0 μM) | < 25 | + (activity was measured to be greater than 10.0 μM) |
| CN(C)C(=O)N1CCC2(CCN(C3CCN(c4nccs4)CC3)CC2)c2ccccc21 [compound 35] | < 25 | ++ (activity was measured to be from 2.0 μM to 10.0 μM) | < 25 | ++ (activity was measured to be from 2.0 μM to 10.0 μM) |
| CC(=O)N1CCC2(CCN(C3CCN(c4ncc(C)s4)CC3)CC2)c2ccccc21 [compound 37] | < 25 | + (activity was measured to be greater than 10.0 μM) | < 25 | + (activity was measured to be greater than 10.0 μM) |
| COC(=O)N1CCC(N2CCC3(CC2)CN(C(=O)N(C)C)c2ccccc23)CC1 [compound 38] | 25 to 100 | +++ (activity was measured to be less than 2.0 μM) | 25 to 100 | ++ (activity was measured to be from 2.0 μM to 10.0 μM) |
| CCCOC(=O)N1CCC(N2CCC3(CC2)CN(C(=O)N(C)C)c2ccccc23)CC1 [compound 40] | 25 to 100 | +++ (activity was measured to be less than 2.0 μM) | 25 to 100 | +++ (activity was measured to be less than 2.0 μM) |
| CC(C)OC(=O)N1CCC(N2CCC3(CC2)CN(C(=O)N(C)C)c2ccccc23)CC1 [compound 41] | 25 to 100 | +++ (activity was measured to be less than 2.0 μM) | 25 to 100 | +++ (activity was measured to be less than 2.0 μM) |
| CN(C)C(=O)N1CC2(CCN(C3CCN(C(=O)OCC(F)F)CC3)CC2)c2ccccc21 [compound 42] | 25 to 100 | +++ (activity was measured to be less than 2.0 μM) | 25 to 100 | +++ (activity was measured to be less than 2.0 μM) |
| COCCOC(=O)N1CCC(N2CCC3(CC2)CN(C(=O)N(C)C)c2ccccc23)CC1 [compound 43] | 25 to 100 | +++ (activity was measured to be less than 2.0 μM) | 25 to 100 | +++ (activity was measured to be less than 2.0 μM) |
| C#CCCOC(=O)N1CCC(N2CCC3(CC2)CN(C(=O)N(C)C)c2ccccc23)CC1 [compound 44] | 25 to 100 | +++ (activity was measured to be less than 2.0 μM) | 25 to 100 | +++ (activity was measured to be less than 2.0 μM) |
| COC(=O)N1C2CCC1CC(N1CCC3(CC1)CN(C(=O)N(C)C)c1ccccc13)C2 (centres unmarked) [compound 45] | 25 to 100 | +++ (activity was measured to be less than 2.0 μM) | 25 to 100 | ++ (activity was measured to be from 2.0 μM to 10.0 μM) |
| CCOC(=O)N1C2CCC1CC(N1CCC3(CC1)CN(C(=O)N(C)C)c1ccccc13)C2 (centres unmarked) [compound 46] | 25 to 100 | +++ (activity was measured to be less than 2.0 μM) | 25 to 100 | +++ (activity was measured to be less than 2.0 μM) |
| CCCOC(=O)N1C2CCC1CC(N1CCC3(CC1)CN(C(=O)N(C)C)c1ccccc13)C2 (centres unmarked) [compound 47] | 25 to 100 | +++ (activity was measured to be less than 2.0 μM) | 25 to 100 | +++ (activity was measured to be less than 2.0 μM) |
| CC(C)OC(=O)N1C2CCC1CC(N1CCC3(CC1)CN(C(=O)N(C)C)c1ccccc13)C2 (centres unmarked) [compound 48] | 25 to 100 | +++ (activity was measured to be less than 2.0 μM) | 25 to 100 | +++ (activity was measured to be less than 2.0 μM) |
| CN(C)C(=O)N1CC2(CCN(C3CC4CCC(C3)N4C(=O)OCC(F)F)CC2)c2ccccc21 (centres unmarked) [compound 49] | 25 to 100 | +++ (activity was measured to be less than 2.0 μM) | 25 to 100 | +++ (activity was measured to be less than 2.0 μM) |
| COCCOC(=O)N1C2CCC1CC(N1CCC3(CC1)CN(C(=O)N(C)C)c1ccccc13)C2 (centres unmarked) [compound 50] | 25 to 100 | +++ (activity was measured to be less than 2.0 μM) | 25 to 100 | +++ (activity was measured to be less than 2.0 μM) |
| C#CCCOC(=O)N1C2CCC1CC(N1CCC3(CC1)CN(C(=O)N(C)C)c1ccccc13)C2 (centres unmarked) [compound 51] | 25 to 100 | +++ (activity was measured to be less than 2.0 μM) | 25 to 100 | +++ (activity was measured to be less than 2.0 μM) |
